Reference: article PMC5019189 (European journal of pharmacology, 2015)
Like-named read-outs stand apart in the source and are kept apart here.

Columns and labels:
[1] = tested on: TNF-α-induced VCAM-1 protein expression; test: ELISA of 24 h TNF-α-induced VCAM-1 protein expression on HUVEC; type: cell-based, human; details: for inhibition of the VCAM-1 protein expression elicited by TNF-α: 50 μM compound
[2] = tested on: abnormal MHC gene expression in thyroid epithelial cells; details: ref Giuliani et al., 2010; cited from earlier work
[3] = tested on: TNF-α-induced VCAM-1 mRNA expression; details: human aortic endothelial cells, Northern blot analysis; ref Dagia et al., 2004; cited from earlier work
HUVEC = test: Cell viability; type: cell-based, human; details: 24 h, linear regression, mean of three experiments

| IC50 ([1]; read-out: IC50, concentration of compound needed to inhibit 50% of the VCAM-1 expression, 10 ng/ml TNF-α, 24 h, ELISA, linear regression, average of at least three experiments) [µM] | IC50 ([1]; Homo sapiens, 24 h, read-out: IC50, concentration of compound needed to inhibit 50% of the VCAM-1 expression) [µM] | SMILES | inhibition of the VCAM-1 protein expression elicited by TNF-α ([1]; 24 h TNF-α) | suppression of abnormal MHC gene expression compared to MMI [2] | effect on 24 h TNF-α-induced VCAM-1 mRNA expression [3] | inhibition of VCAM-1 protein expression ([1]; 70 μM compound, 24 h TNF-α) | TC50, concentration of compound needed to reduce the MTS signal by 50% of the control value (HUVEC) [µM] |
| --- | --- | --- | --- | --- | --- | --- | --- |
| 66 |  | Cn1c(-c2ccccc2)c[nH]c1=S [1a, 4-phenyl-3-methyl-1, 3 imidazole-2-thione] | over 40% | 70–100 fold | inhibits |  |  |
|  | 1140 | Cn1cc[nH]c1=S [MMI, 3-methyl-1, 3 imidazole-2 thione] | no inhibitory effect |  |  | little, if any, inhibition | 2450 |
